Measured values published in the supplement of paper PMC11451515.

System: NOMO1
Assay: cell viability relative to DMSO control; higher = less cytotoxic
Conditions: 48 h
Summary of the method: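 NOMO1, SEM and P12-Ichikawa leukemia cells spent at least four passages adapting to each medium before use. They were seeded at 500 cells/well (NOMO1, SEM) or 1000 cells/well (P12-Ichikawa) in 5 μl in 1536-well plates and pin-dosed with library compounds in DMSO at 11 threefold steps from 47 μM down to 0.79 nM. After 48 h at 37°C, CellTiter-Glo One luminescence was read. Viability is reported as a percentage of the DMSO wells on each plate, with cell-free wells as background.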

[1] = HPLM + 10% dialyzed FBS, 0.000781 µM
[2] = HPLM + 10% dialyzed FBS, 0.00234 µM
[3] = HPLM + 10% dialyzed FBS, 0.00702 µM
[4] = HPLM + 10% dialyzed FBS, 0.0211 µM
[5] = HPLM + 10% dialyzed FBS, 0.0632 µM
[6] = HPLM + 10% dialyzed FBS, 0.19 µM
[7] = HPLM + 10% dialyzed FBS, 0.569 µM
[8] = HPLM + 10% dialyzed FBS, 1.71 µM
[9] = HPLM + 10% dialyzed FBS, 5.12 µM
[10] = HPLM + 10% dialyzed FBS, 15.4 µM
[11] = HPLM + 10% dialyzed FBS, 46.1 µM
[12] = RPMI 5 mM glucose + 10% dialyzed FBS, 0.000781 µM
[13] = RPMI 5 mM glucose + 10% dialyzed FBS, 0.00234 µM
[14] = RPMI 5 mM glucose + 10% dialyzed FBS, 0.00702 µM
[15] = RPMI 5 mM glucose + 10% dialyzed FBS, 0.0211 µM
[16] = RPMI 5 mM glucose + 10% dialyzed FBS, 0.0632 µM
[17] = RPMI 5 mM glucose + 10% dialyzed FBS, 0.19 µM
[18] = RPMI 5 mM glucose + 10% dialyzed FBS, 0.569 µM
[19] = RPMI 5 mM glucose + 10% dialyzed FBS, 1.71 µM
[20] = RPMI 5 mM glucose + 10% dialyzed FBS, 5.12 µM
[21] = RPMI 5 mM glucose + 10% dialyzed FBS, 15.4 µM
[22] = RPMI 5 mM glucose + 10% dialyzed FBS, 46.1 µM
[23] = RPMI 5 mM glucose + 10% FBS, 0.000781 µM
[24] = RPMI 5 mM glucose + 10% FBS, 0.00234 µM
[25] = RPMI 5 mM glucose + 10% FBS, 0.00702 µM
[26] = RPMI 5 mM glucose + 10% FBS, 0.0211 µM
[27] = RPMI 5 mM glucose + 10% FBS, 0.0632 µM
[28] = RPMI 5 mM glucose + 10% FBS, 0.19 µM
[29] = RPMI 5 mM glucose + 10% FBS, 0.569 µM
[30] = RPMI 5 mM glucose + 10% FBS, 1.71 µM
[31] = RPMI 5 mM glucose + 10% FBS, 5.12 µM
[32] = RPMI 5 mM glucose + 10% FBS, 15.4 µM
[33] = RPMI 5 mM glucose + 10% FBS, 46.1 µM

Row | Structure (SMILES) | cell viability [1] [%] | cell viability [2] [%] | cell viability [3] [%] | cell viability [4] [%] | cell viability [5] [%] | cell viability [6] [%] | cell viability [7] [%] | cell viability [8] [%] | cell viability [9] [%] | cell viability [10] [%] | cell viability [11] [%] | cell viability [12] [%] | cell viability [13] [%] | cell viability [14] [%] | cell viability [15] [%] | cell viability [16] [%] | cell viability [17] [%] | cell viability [18] [%] | cell viability [19] [%] | cell viability [20] [%] | cell viability [21] [%] | cell viability [22] [%] | cell viability [23] [%] | cell viability [24] [%] | cell viability [25] [%] | cell viability [26] [%] | cell viability [27] [%] | cell viability [28] [%] | cell viability [29] [%] | cell viability [30] [%] | cell viability [31] [%] | cell viability [32] [%] | cell viability [33] [%]
1 | COc1ccc2c(c1)c(CC(=O)OCC(=O)O)c(C)n2C(=O)c1ccc(Cl)cc1 | 123 | 131 | 122 | 136 | 117 | 131 | 128 | 114 | 123 | 120 | 123 | 112 | 137 | 110 | 142 | 117 | 133 | 120 | 135 | 115 | 123 | 106 | – | – | – | – | – | – | – | – | – | – | –
2 | C[C@H]1[C@@H](C(=O)C[C@H]2O[C@@H]3O[C@]4(C)CC[C@H]5[C@H](C)CC[C@@H]([C@H]2C)[C@@]35OO4)O[C@@H]2O[C@]3(C)CC[C@H]4[C@H](C)CC[C@@H]1[C@@]24OO3 | 114 | 121 | 122 | 102 | 127 | 115 | 116 | 102 | 111 | 67 | 21 | 114 | 131 | 105 | 120 | 122 | 107 | 93.9 | 95.2 | 96.2 | 69 | 24.6 | 103 | 117 | 102 | 99.4 | 110 | 110 | 103 | 109 | 105 | 58.4 | 24.8
3 | CC[C@H](C)C(=O)O[C@H]1C[C@H](O)\C=C2\C=C/[C@H](C)[C@H](CC[C@@H](O)C[C@@H](O)CC(O)=O)[C@@H]12 | 123 | 116 | 118 | 119 | 125 | 123 | 110 | 101 | 103 | 104 | 84.1 | 105 | 110 | 117 | 104 | 101 | 110 | 112 | 101 | 103 | 107 | 99 | 114 | 111 | 118 | 106 | 117 | 126 | 116 | 116 | 104 | 105 | 102
4 | CCC\C1=C\C(=O)NC(=S)N1 | 81.7 | 104 | 112 | 131 | 113 | 126 | 121 | 133 | 72.3 | 35 | 25.8 | 103 | 122 | 115 | 118 | 109 | 109 | 113 | 123 | 99.7 | 100 | 31.7 | 101 | 113 | 123 | 123 | 114 | 109 | 116 | 119 | 111 | 29.4 | 20.9
5 | CO/C1=C/C(C)=C\[C@@H](C)[C@@H](O)[C@@H](C)C/C(C)=C\C=C/[C@H](OC)[C@@H]([C@@H](C)[C@@H](O)[C@H](C)[C@@]2(O)C[C@@H](O)[C@H](C)[C@@H](C(C)C)O2)OC1=O | 79.5 | 97.1 | 91.8 | 90.6 | 58.8 | 12.1 | 12.7 | 11.1 | 12.6 | 10.5 | 9.72 | 99.8 | 103 | 104 | 83 | 73.7 | 8.37 | 8.28 | 8.09 | 7.93 | 6.37 | 6.62 | 105 | 95.9 | 107 | 82.3 | 88.7 | 12.5 | 9.12 | 7.87 | 9.62 | 8.77 | 7.13
6 | Cc1ccc([S+](=O)([O-])Nc2nc3ccccc3nc2Nc2ccc3nsnc3c2)cc1 | 97.3 | 106 | 114 | 104 | 116 | 110 | 111 | 72.5 | 21.3 | 18 | 13.1 | 84.8 | 88.7 | 106 | 91.8 | 111 | 99.2 | 92.8 | 96.1 | 20.7 | 15.9 | 12.7 | 89.2 | 94.4 | 89.2 | 108 | 101 | 119 | 96.7 | 78.5 | 14 | 11.5 | 7.49
7 | COc1cc2c(Nc3ccc(Br)cc3F)ncnc2cc1OCC1CCN(C)CC1 | 93.2 | 93.5 | 88.9 | 90.1 | 75 | 85.5 | 81 | 71 | 74.8 | 31.5 | 69.8 | 82.4 | 79.1 | 82.2 | 88.4 | 88.2 | 85.2 | 86.8 | 70.7 | 88.6 | 41.1 | 84.4 | 79 | 81.7 | 76.5 | 75.5 | 75.4 | 78.1 | 77 | 79.7 | 90.3 | 72.6 | 73
8 | C[S+](=O)([O-])c1cccc(CNc2nc(Nc3ccc4c(c3)CCC(=O)N4)ncc2C(F)(F)F)c1 | – | – | – | – | – | – | – | – | – | – | – | 107 | 109 | 114 | 129 | 99.9 | 115 | 105 | 111 | 108 | 86.1 | 58.9 | 99.6 | 113 | 116 | 115 | 108 | 114 | 113 | 100 | 93.3 | 91.6 | 53.9
9 | N[S+](=O)([O-])c1cccc2c1C(=O)c1cccc(O)c1C2=O | 105 | 115 | 112 | 105 | 119 | 106 | 107 | 85 | 91.6 | 78.7 | 4.98 | 97.6 | 104 | 97.3 | 103 | 102 | 107 | 108 | 94.9 | 94.3 | 82.9 | 4.93 | 110 | 101 | 103 | 98.5 | 115 | 107 | 91.9 | 94.9 | 88.2 | 97.1 | 3.99
10 | CN1C(=O)C[C@H](C(=O)N[C@@H](Cc2cnc[nH]2)C(=O)N2CCC[C@H]2C(N)=O)NC1=O | 119 | 122 | 109 | 113 | 116 | 125 | 126 | 130 | 104 | 108 | 107 | – | – | – | – | – | – | – | – | – | – | – | 126 | 115 | 121 | 119 | 126 | 132 | 114 | 124 | 116 | 115 | 114
11 | CN(C)c1nc(Cc2ccc(NC(=O)c3ccc4ccccc4c3)cc2)nc(Cl)c1CC(=O)O | 113 | 116 | 112 | 126 | 114 | 90.9 | 106 | 65.2 | 57.6 | 47.2 | 48.1 | 108 | 110 | 98.6 | 106 | 111 | 99.4 | 92.9 | 62.1 | 63.1 | 60.7 | 43.6 | 115 | 98.2 | 100 | 98.3 | 100 | 97 | 97.1 | 74.3 | 73 | 61.8 | 44.4
12 | Oc1cccc(-c2nc(N3CCOCC3)c3oc4ncccc4c3n2)c1 | 121 | 92.1 | 117 | 91.8 | 92.3 | 107 | 115 | 102 | 129 | 96.4 | 103 | 120 | 106 | 125 | 98.9 | 110 | 102 | 80.4 | 77.7 | 109 | 106 | 126 | 109 | 113 | 116 | 123 | 112 | 108 | 104 | 87.4 | 128 | 124 | 122
13 | CCOC(=O)c1cncn1[C@H](C)c1ccccc1 | – | – | – | – | – | – | – | – | – | – | – | – | – | – | – | – | – | – | – | – | – | – | 118 | 116 | 135 | 128 | 112 | 115 | 121 | 127 | 117 | 119 | 125
14 | Cc1cc(Nc2cc(CN3CCOCC3)c3nc(C)c(Cc4ccc(Cl)cc4F)n3n2)[nH]n1 | 114 | 121 | 130 | 114 | 137 | 115 | 101 | 110 | 99.7 | 53.5 | 48.3 | 102 | 111 | 119 | 115 | 115 | 106 | 109 | 97.3 | 92 | 45 | 34.3 | 103 | 98.2 | 103 | 111 | 95.4 | 114 | 94 | 94.7 | 91.7 | 36.7 | 28.2
15 | CN1c2ccccc2C(=O)N2CCc3c([nH]c4ccccc34)C21 (centres undefined) | 122 | 115 | 118 | 138 | 130 | 135 | 151 | 118 | 107 | 105 | 102 | – | – | – | – | – | – | – | – | – | – | – | 116 | 108 | 122 | 116 | 112 | 111 | 123 | 115 | 102 | 107 | 106
